This data set deals with rat. The data set is described as follows: rat tail withdrawal assay (hot water, 55°C). The format is in vivo. The settings on record: for analgesic activity: general statement, route and dose not stated. Here is the method: The acetate salts of formula I described in Examples 1 to 3 were tested for analgesic activity in the rat tail withdrawal assay. […] Latencies of 5 seconds or greater indicate strong analgesic activity and 20 seconds is a maximum response in this test. The peptides were administered intracisternally or intravenously.
The formula I acetate of Example 2 was dissolved in a sufficient sterile, distilled water to give an injection volume of 1 ml/kg of body weight and administered to rats as a bolus i.v. injection at several dosages.

“And” between values parts separate entries of the source, which are not always exact repeats. Equal values may be shown once. Where a SMILES comes first, the peptide text is derived from it. [ ]: non-standard residue; d: D form. NMeF = CN[C@@H](Cc1ccccc1)C(=O)O; Thz = O=C(O)[C@@H]1CSCN1

Consider `NC(=O)[C@@H]1CSCN1C(=O)[C@H](Cc1ccccc1)NC(=O)[C@@H]1CCCN1C(=O)[C@@H](N)Cc1ccc(O)cc1` [Example 1, L-Tyrosyl-L-Prolyl-L-Phenylalanyl-L-Thiazolidine-4-carboxyl·amide Acetate] (H-YPF[Thz]-NH2), for which the analgesic activity result is on record as “high analgesic activity”.

With `CN(C(=O)[C@@H]1CCCN1C(=O)[C@@H](N)Cc1ccc(O)cc1)[C@@H](Cc1ccccc1)C(=O)N1CCC[C@@H]1C(N)=O` [Example 2, L-Tyrosyl-L-Prolyl-N-Methyl-L-Phenylalanyl-D-Prolinamide-Acetate] (H-YP[NMeF][dP]-NH2), the “Latency of Tail Withdrawal” value was determined as 2 s (i.v. bolus, 2.5 mg/kg, 5 min. after injection); 8.4 ± 3.6 s (i.v. bolus, 5.0 mg/kg, 5 min. after injection); 10.2 ± 3.2 s (i.v. bolus, 10.0 mg/kg, 5 min. after injection); 11.1 ± 3.1 s (i.v. bolus, 10.0 mg/kg, 15 min. after injection); 7.5 ± 2.5 s (i.v. bolus, 10.0 mg/kg, 30 min. after injection); 6.4 ± 2.3 s (i.v. bolus, 10.0 mg/kg, 60 min. after injection). The “Latency of Tail Withdrawal” value by setting is: (i.v., 2.5 mg/kg, 15 min. after injection) 3.5 s; (i.v., 2.5 mg/kg, 30 min. after injection) 3.0 s; (i.v., 2.5 mg/kg, 60 min. after injection) 2.5 s; (i.v., 5.0 mg/kg, 15 min. after injection) 10.3 ± 3.1 s; (i.v., 5.0 mg/kg, 30 min. after injection) 9.1 ± 3.4 s; (i.v., 5.0 mg/kg, 60 min. after injection) 7.8 ± 3.0 s. Moreover, the Comments result (i.v., 5.0 mg/kg, observed behaviour) is “Individual rats showed 20 sec. latencies and morphine-like symptoms”.

With `CN(C(=O)[C@@H]1CCCN1C(=O)[C@@H](N)Cc1ccc(O)cc1)[C@@H](Cc1ccccc1)C(=O)N1CCC[C@@H]1CO` [Example 3, L-Tyrosyl-L-Prolyl-N-Methyl-L-Phenylalanyl-D-Prolinol· Acetate], the analgesic activity entry was “high analgesic activity”.

Regarding `CN(C(=O)[C@@H]1CSCN1C(=O)[C@@H](N)Cc1ccc(O)cc1)[C@@H](Cc1ccccc1)C(=O)N1CCC[C@@H]1C(N)=O` [Tyr-Thz-N-Me-Phe-D-Pro-NFi2] (H-Y[Thz][NMeF][dP]-NH2), the analgesic activity result is “high analgesic activity”.

In the case of `CN1CC[C@]23c4c5ccc(O)c4O[C@H]2[C@@H](O)C=C[C@H]3[C@H]1C5` [morphine, reference compound], the “Latency of Tail Withdrawal” value runs as follows: (rat, in vivo, iv, 2.5 mg/kg) 5 s and 6 s and 4.1 s; (rat, in vivo, iv, 5 mg/kg) 20 s; (rat, in vivo, iv, 7.5 mg/kg) 20 s. In addition, the Comments entry (rat, in vivo, iv, 5 mg/kg) is listed as “Catalepsy Rigidity”.

For the origin of these results see patent EP0053029A1, “Non enkephalin-like peptides, their production, compositions containing them, and their medical and veterinary use” (PENINSULA LABORATORIES INCORPORATED, priority 1980, dated 1982).
